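Five compound concentrations were applied to cells in 96-well plates for 48 hours; endpoints were derived by simple linear interpolation of the resulting dose-response curve. GI50 = concentration required for 50% inhibition of growth.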 The source made the active and inactive calls. Rule as the data show it: active = GI50 up to about 1.1 µM and inactive = higher. Where a SMILES comes first, the peptide text is derived from it. The star is where a group is joined. Boc = CC(C)(C)OC(=O)*; OSu = O=C1CCC(=O)N1O*
Legend:
Assay in all cases: NCI-60 cell line screen, 48 h
SF-295 = test system: SF-295
OVCAR-8 = test system: OVCAR-8
SK-OV-3 = test system: SK-OV-3
K562 = test system: K562
NCI-H23 = test system: NCI-H23
NCI-H522 = test system: NCI-H522
SF-268 = test system: SF-268
IGROV-1 = test system: IGROV-1
HOP-92 = test system: HOP-92
SNB-19 = test system: SNB-19
M14 = test system: M14
UACC-257 = test system: UACC-257
SK-MEL-2 = test system: SK-MEL-2
RPMI-8226 = test system: RPMI-8226
OVCAR-5 = test system: OVCAR-5
DU-145 = test system: DU-145
NCI/ADR-RES = test system: NCI/ADR-RES
Hs-578T = test system: Hs-578T
BT-549 = test system: BT-549

Measured: GI50

Cn1cnc2nc(Cl)nc(NC(C)(C)C(C)(C)O)c21
inactive: SF-295 > 100 µM | OVCAR-8 > 100 µM | SK-OV-3 > 100 µM | K562 > 100 µM | NCI-H23 > 100 µM | NCI-H522 72.4 µM | SF-268 > 100 µM | IGROV-1 > 100 µM | HOP-92 > 100 µM | SNB-19 > 100 µM | M14 > 100 µM | UACC-257 > 100 µM | SK-MEL-2 > 100 µM | RPMI-8226 > 100 µM | OVCAR-5 > 100 µM

CC(C)CN1CN(c2ccccc2)C2(CCN(CC(C)(c3ccc(F)cc3)C3OCCO3)CC2)C1=O (configuration not stated)
inactive: SF-295 3.87 µM | DU-145 4.1 µM | OVCAR-8 10.1 µM | NCI/ADR-RES 7.41 µM | SK-OV-3 3.89 µM | K562 3.08 µM | Hs-578T 3.66 µM | NCI-H23 2.09 µM | BT-549 6.56 µM | NCI-H522 3.96 µM | SF-268 8.39 µM | SNB-19 7.21 µM | M14 2.36 µM | UACC-257 3.04 µM | SK-MEL-2 2.89 µM | RPMI-8226 1.94 µM | OVCAR-5 13 µM

CC(C)C(NC(=O)C(Cc1ccccc1)NC(=O)[C@H]1CCC[C@H]1NC(=O)C(Cc1ccc(OC(C)(C)C)cc1)NC(=O)OC(C)(C)C)C(N)=O (some centres not stated)
inactive: SF-295 17.3 µM | DU-145 54.2 µM | OVCAR-8 16.6 µM | NCI/ADR-RES > 100 µM | SK-OV-3 17.9 µM | K562 17.8 µM | Hs-578T > 10 µM | NCI-H23 16.9 µM | NCI-H522 14.9 µM | SF-268 23.1 µM | IGROV-1 31.3 µM | HOP-92 21.8 µM | M14 18 µM | UACC-257 > 10 µM | SK-MEL-2 26 µM | RPMI-8226 36.5 µM | OVCAR-5 18.8 µM

CN(c1ccccc1)S(=O)(=O)c1ccccc1[N+](=O)[O-]
inactive: SF-295 > 100 µM | DU-145 > 100 µM | OVCAR-8 > 100 µM | NCI/ADR-RES > 100 µM | SK-OV-3 > 100 µM | K562 36.3 µM | Hs-578T > 100 µM | NCI-H23 > 100 µM | BT-549 75.2 µM | NCI-H522 64.3 µM | SF-268 > 100 µM | IGROV-1 > 100 µM | SNB-19 > 100 µM | M14 > 100 µM | UACC-257 > 100 µM | SK-MEL-2 > 100 µM | RPMI-8226 37.8 µM | OVCAR-5 > 100 µM

O=C1C2CCCCC2C(=O)N1n1c(-c2ccccc2)n[nH]c1=O (configuration not stated)
inactive: SF-295 > 100 µM | OVCAR-8 > 100 µM | NCI/ADR-RES > 100 µM | SK-OV-3 > 100 µM | K562 > 100 µM | Hs-578T > 100 µM | NCI-H23 > 100 µM | BT-549 > 100 µM | NCI-H522 > 100 µM | SF-268 > 100 µM | IGROV-1 > 100 µM | HOP-92 > 100 µM | SNB-19 > 100 µM | M14 > 100 µM | UACC-257 > 100 µM | SK-MEL-2 > 100 µM | RPMI-8226 > 100 µM | OVCAR-5 > 100 µM

CCCCCCCCCCCCCCCCCc1cccc(OCOCCOC)c1CO
inactive: SF-295 > 100 µM | OVCAR-8 > 100 µM | NCI/ADR-RES > 100 µM | SK-OV-3 > 100 µM | K562 > 100 µM | Hs-578T > 100 µM | NCI-H23 > 100 µM | BT-549 > 100 µM | NCI-H522 > 100 µM | SF-268 > 100 µM | IGROV-1 > 100 µM | HOP-92 > 100 µM | SNB-19 > 100 µM | M14 > 100 µM | UACC-257 > 100 µM | SK-MEL-2 > 100 µM | RPMI-8226 > 100 µM | OVCAR-5 > 100 µM

OC1NC2CC3NC(O)C(O)NC3CC2NC1O (configuration not stated)
inactive: SF-295 > 100 µM | DU-145 > 100 µM | OVCAR-8 > 100 µM | NCI/ADR-RES > 100 µM | SK-OV-3 > 100 µM | K562 > 100 µM | Hs-578T > 100 µM | NCI-H23 > 100 µM | NCI-H522 > 100 µM | SF-268 > 100 µM | IGROV-1 > 100 µM | HOP-92 > 100 µM | SNB-19 > 100 µM | M14 > 100 µM | UACC-257 > 100 µM | SK-MEL-2 > 100 µM | RPMI-8226 > 100 µM | OVCAR-5 > 100 µM

Cc1nc2c(=O)n(C)ncc2[nH]1
inactive: SF-295 > 100 µM | DU-145 > 100 µM | OVCAR-8 > 100 µM | NCI/ADR-RES > 100 µM | K562 > 100 µM | Hs-578T 77.1 µM | NCI-H23 > 100 µM | BT-549 > 100 µM | SF-268 > 100 µM | IGROV-1 > 100 µM | SNB-19 > 100 µM | M14 > 100 µM | UACC-257 > 100 µM | SK-MEL-2 > 100 µM | RPMI-8226 > 100 µM | OVCAR-5 > 100 µM

CC1=NN(c2cccc(Cl)c2)C(=N/c2nc3ccccc3s2)/C1=C\c1ccc(Cl)cc1
inactive: SF-295 23.4 µM | DU-145 34.2 µM | OVCAR-8 19.8 µM | NCI/ADR-RES 22.5 µM | SK-OV-3 36.4 µM | K562 29 µM | Hs-578T 23 µM | NCI-H23 18.7 µM | NCI-H522 18.7 µM | SF-268 19.3 µM | IGROV-1 13.5 µM | HOP-92 17.4 µM | M14 23.8 µM | UACC-257 20.7 µM | SK-MEL-2 17.9 µM | RPMI-8226 37.2 µM | OVCAR-5 22.6 µM

CC(=O)OC1CC(O)CC2=CCC3C4CCC(C(C)(O)C(O)CC5COC(=O)C5C)C4(C)CCC3C21C (configuration not stated)
inactive: SF-295 > 25 µM | DU-145 > 25 µM | OVCAR-8 > 25 µM | SK-OV-3 > 25 µM | K562 18.4 µM | Hs-578T 10.3 µM | NCI-H23 > 25 µM | BT-549 > 25 µM | NCI-H522 12.8 µM | SF-268 > 25 µM | IGROV-1 > 25 µM | HOP-92 > 25 µM | SNB-19 > 25 µM | M14 > 25 µM | UACC-257 > 25 µM | SK-MEL-2 > 25 µM | RPMI-8226 14.6 µM | OVCAR-5 > 25 µM

C[N+]1(CCCl)CC[N+](C)(CCCl)CC1 (configuration not stated)
inactive: SF-295 > 100 µM | DU-145 > 100 µM | OVCAR-8 > 100 µM | NCI/ADR-RES > 100 µM | SK-OV-3 > 100 µM | K562 > 100 µM | Hs-578T > 100 µM | NCI-H23 > 100 µM | BT-549 > 100 µM | SF-268 > 100 µM | IGROV-1 > 100 µM | SNB-19 > 100 µM | M14 > 100 µM | UACC-257 > 100 µM | SK-MEL-2 > 100 µM | RPMI-8226 > 100 µM | OVCAR-5 > 100 µM

CC(C)(C)OC(=O)NC(Cc1ccc(O)cc1)C(=O)NC(CCCCN)C(=O)NC(Cc1ccc(O)cc1)C(=O)NC(CCCCN)C(=O)ON1C(=O)CCC1=O (configuration not stated) (Boc-YKYK-OSu; configuration not given here)
inactive: OVCAR-8 > 100 µM | K562 > 100 µM | Hs-578T > 100 µM | NCI-H23 > 100 µM | BT-549 > 100 µM | IGROV-1 85.3 µM | HOP-92 > 100 µM | SNB-19 > 100 µM | M14 > 100 µM | UACC-257 > 100 µM | SK-MEL-2 > 100 µM | RPMI-8226 > 100 µM | OVCAR-5 > 100 µM
